Values quoted from earlier work, collected in PMC9199201, “Biomimetic and temporal-controlled nanocarriers with ileum transporter targeting for achieving oral administration of chemotherapeutic drugs” (Journal of Nanobiotechnology, 2022).

Parameters: method as in PMID 23220325

In the case of `CC(=O)O[C@H]1C(=O)[C@@]2(C)[C@H]([C@H](OC(=O)c3ccccc3)[C@]3(O)C[C@H](OC(=O)[C@H](O)[C@@H](NC(=O)c4ccccc4)c4ccccc4)C(C)=C1C3(C)C)[C@]1(OC(C)=O)CO[C@@H]1C[C@@H]2O` [PTX, paclitaxel], the Oral bioavailability is given as “less than 1%”.
